From patent publication US4990531A, “Derivatives of 1-arylsulphonyl-2-pyrrolidinone and their use as medicaments” (Roussel Uclaf, priority 1988, dated 1991)
Read-outs that look alike come from different tables or passages of the source.

Columns and labels:
isolated ileum = assay: Agonist action on isolated guinea-pig ileum; details: negative logarithm of the dose producing 50% of maximum effect
Experimental: (§1) The interaction of the compounds with various receptors was evaluated on the isolated ileum of a guinea-pig according to the following method.
(§2) Segments of the ileum of guinea-pigs of 2.5-3 cm were washed and immediately suspended in a bath containing 10 ml of Tyrode's solution at 37° C. and aerated with a mixture of oxygen (95%) and carbon dioxide (5%). After a stabilization period of at least 30 minutes contractions were recorded, while the preparation was maintained under constant tension of 1 g, by means of a detector connected to a polygraph. The agonistic action was evaluated by leaving the compound in contact with the isolated tissue for a period necessary to show the maximum […]; then it was washed with the Tyrode's solution. The following dose was added only after the preparation had returned to its base line. Arecoline was used as a reference product. The antagonist action was evaluated on the contractions induced by acetylcholine (1×10^-6 M), histamine (1×10^-5 M), serotonine (1×10^-6 M) and barium chloride (2×10^-4 M). […] The contact time before adding the agonist was one minute.
(§3) For each compound the does response curves are obtained with 4 to 6 different concentrations and 3 to 5 independent tests. The agonist activity is expressed by pD2 (negative logarithm of the dose which produces 50% of the maximum effect).

[1] = system: cholinomimetic effects induced by carbachol; assay: In vivo anticholinergic action: inhibition of carbachol-induced cholinomimetic effects; parameters: species or system CD1 male mice; details: for ED50 / ED (1 degree C): Mus musculus, ip, 0.5 h; for ED (1 degree C): rectal temperature, read-out: Body Temperature: dose able to increase by 1° C. the hypothermic effect induced by carbachol
Experimental: The anticholinergic activity of the compounds was determined by evaluating the capacity to inhibit cholinomimetic effects induced by carbachol. Atropine sulphate was used as reference product.
CD1 male mice are used weighing 25 to 30 g. They are divided into groups of 5 animals and treated by intraperitoneal route, in scaled doses, with the products or with 0.25% of Methocel for the controls. 10 animals are used for each dose. 30 minutes after the administration of the compounds, the mice are subcutaneously injected with 1 mg/kg of carbachol, dissolved in physiological serum.
Each animal was examined 30 minutes after the injection of carbachol to evaluate the presence of diarrhea, salivation and watering of the eyes; the body temperature was also measured using a thermocouple inserted 1.5 cm into the rectum.
For each compound, there was determined, and recorded in the following table, the dose able to inhibit, in 50% of the animals, the appearance of peripheral cholinomimetic symptoms induced by carbachol, and to increase by 1° C. the hypothermic effect induced by the cholinergic agent.

[2] = system: contractions induced by acetylcholine, isolated ileum; assay: Antagonism of acetylcholine-induced contractions, isolated guinea-pig ileum; details: acetylcholine 1×10^-6 M; contact time one minute; read-out: Antagonism with various agents (IC50): Ach.
Experimental: as §1, §2, §3

[3] = system: contractions induced by acetylcholine, isolated colon; assay: Antagonism of acetylcholine-induced contractions, isolated colon of rat; details: acetylcholine 3×10^-6 M; contact 3 minutes
Experimental: The remarkable antagonist action of the compounds of the invention was confirmed on the isolated colon of rats. In this test it was established whether the antagonist activity was of competitive or non-competitive type.
(§4) The following method was used: segments of the colon of rats of about 2.5 cm are washed and suspended in an insulated bath containing 10 ml of a solution of De Jalon having the following composition: (mM): NaCl 154; KCl 5.7; CaCl2 0.27; NaHCO3 5.9 and glucose 2.5. The temperature of the bath is maintained at 32° C. In these conditions, while maintaining the preparation under a tension of 1 g, the spontaneous activity of the colon is minimal. After a stabilization period of at least 30 minutes, the tension variations are recorded using an isometric transducer connected to a recorder. A series of tests was carried out to evaluate the antagonist activity in relation to the contractions induced by a maximum dose of acetylcholine. (3×10^-6 M).
The compounds are left in contact with the preparation for 3 minutes before adding acetylcholine.
Atropine was used as a reference product. For each compound the dose-response curves are obtained with 4 to 6 different concentrations and 3 to 5 independent tests.

[4] = target: T1, muscarine receptors, involved in the contractions of the colon (Rattus norvegicus, UniProt P08483); assay: Antagonist affinity and type of antagonism (Schild), isolated colon of rat
T1 construct: segments of the colon of rats of about 2.5 cm; from tissue; host or cells: isolated rat colon segments
T1 sequence (P08483 whole entry): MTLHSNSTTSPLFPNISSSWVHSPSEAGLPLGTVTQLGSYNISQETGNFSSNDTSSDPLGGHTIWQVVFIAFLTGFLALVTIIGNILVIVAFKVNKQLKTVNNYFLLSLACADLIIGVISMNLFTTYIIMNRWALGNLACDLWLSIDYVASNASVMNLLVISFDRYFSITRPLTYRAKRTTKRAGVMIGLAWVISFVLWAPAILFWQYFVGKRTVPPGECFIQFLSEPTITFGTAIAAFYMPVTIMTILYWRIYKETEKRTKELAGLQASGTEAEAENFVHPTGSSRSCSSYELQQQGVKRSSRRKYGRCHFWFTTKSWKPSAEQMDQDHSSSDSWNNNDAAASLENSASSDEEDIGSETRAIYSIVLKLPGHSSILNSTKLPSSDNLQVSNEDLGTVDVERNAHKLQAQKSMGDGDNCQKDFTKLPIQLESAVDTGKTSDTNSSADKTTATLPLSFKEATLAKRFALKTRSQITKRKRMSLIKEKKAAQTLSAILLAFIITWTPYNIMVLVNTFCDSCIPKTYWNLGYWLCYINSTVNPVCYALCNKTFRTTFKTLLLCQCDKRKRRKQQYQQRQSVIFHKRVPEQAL
Experimental: as §4
For each compound the dose-response curves are obtained with 4 to 6 different concentrations and 3 to 5 independent tests.
In a second series of tests the acetylcholine is added to the bath in cumulative doses according to the van Rossum method (J. M. van Rossum, Arch, Int. Pharmacodyn. 143, 299, 1963). Having obtained two equal and consecutive dose-response curves with acetylcholine, a third dose-responsecurve is obtained in the presence of the compound (contact time of compound before acetylcholine=5 min.) Each compound was tested with 3-4 different concentrations
The antagonist affinity and the type of antagonism (competitive, non-competitive) for the muscarine receptors was calculated according to Schild's method (H. D. Schild, Brit. J. Pharmacol. 2, 189, 1947).

[5] = Solubility in various solvents; format: physicochemical
[6] = system: contractions induced by barium chloride, isolated ileum; assay: Antagonism of barium chloride-induced contractions, isolated guinea-pig ileum; details: barium chloride 2×10^-4 M; contact time one minute; read-out: Antagonism with various agents (IC50): BaCL2
Experimental: as §1, §2, §3

[7] = i.p., carbachol 1 mg/kg s.c. 30 min later, read-out: dose able to inhibit, in 50% of the animals, Diarrhea
[8] = i.p., carbachol 1 mg/kg s.c. 30 min later, read-out: dose able to inhibit, in 50% of the animals, Salivation
[9] = i.p., carbachol 1 mg/kg s.c. 30 min later, read-out: dose able to inhibit, in 50% of the animals, Watering of Eyes
[10] = i.p., carbachol 1 mg/kg s.c. 30 min later

## COC(=O)C1=CCCN(C)C1 [Arecoline, reference compound]
Isolated ileum
  Agonist Action (pD2): 6.68

## CN1[C@@H]2CC[C@H]1C[C@@H](OC(=O)C(CO)c1ccccc1)C2 (stereo partly shown) [Atropine, reference compound]
[1]; read-out: dose able to inhibit, in 50% of the animals, Diarrhea
  ED50: 0.04 mg/kg
[1]; read-out: dose able to inhibit, in 50% of the animals, Salivation
  ED50: 0.06 mg/kg
[1]; read-out: dose able to inhibit, in 50% of the animals, Watering of Eyes
  ED50: 0.05 mg/kg
[2]
  IC50: 9.5 nM
[3]
  IC50: 27 nM
[4]; cumulative acetylcholine, Schild's method, contact 5 min
  "Slope" of Schild plot, isolated colon of rat: 0.97
[4]; isolated colon of rat, in words
  displacement of the dose-response curve of acetylcholine: parallel displacement towards the right of the dose-response curve of acetyl-choline without reducing the maximum contraction

## CN(C)c1ccc(S(=O)(=O)N2CCCC2=O)cc1 [Example 3]
[5]; 2N hydrochloric acid
  solubility: insoluble
[5]; 2N sodium hydroxide
  solubility: insoluble
[5]; acetone
  solubility: slightly soluble
[5]; alcohol at 95°
  solubility: slightly soluble
[5]; benzene
  solubility: slightly soluble
[5]; chloroform
  solubility: Soluble
[5]; ethyl ether
  solubility: insoluble
[5]; water
  solubility: insoluble

## O=C1CCCN1S(=O)(=O)c1ccc(N2CCCCC2)cc1 [Example 10, 1-[4-(1-piperidinyl)phenylsulphonyl]-2-pyrrolidinone]
[1]; [7]
  ED50: 3 mg/kg
[1]; [8]
  ED50: 50 mg/kg
[1]; [9]
  ED50: > 50 mg/kg
[1]; [10]
  ED (1 degree C): > 50 mg/kg
[1]; i.p., mice, in words
  selective anticholinergic action in vivo: selective anticholinergic action on the intestinal musculature

## O=C1CCCN1S(=O)(=O)c1ccc(N2CCCCCC2)cc1 [Example 18, 1-[4-(4-hexahydroazepin)phenylsulphonyl]-2-pyrrolidinone]
[1]; [7]
  ED50: 1 mg/kg
[1]; [8]
  ED50: 15 mg/kg
[1]; [9]
  ED50: 50 mg/kg
[1]; [10]
  ED (1 degree C): 15 mg/kg

## COc1ccc(Cc2nccc3cc(OC)c(OC)cc23)cc1OC [Papaverine, reference compound]
[6]
  IC50: 45000 nM

## C[N+](C)(C)CCOC(N)=O [carbachol, reference compound]
[1]; carbachol 1 mg/kg s.c., control mice
  decrease in rectal temperature: about 2.5 °C
[1]; carbachol 1 mg/kg s.c., control mice, in words
  induction of diarrhea, salivation and watering of the eyes: induced diarrhea, salivation and watering of the eyes in all the control mice
